Key:
[1] = system: c-MYC, cyclin B1, cyclin E1, and cyclin D1; assay: Western blot of c-MYC and cyclins in H1299 and PC9 cells; assay type: cell-based, human; details: both cell lines
Method: Cells were lysed in RIPA buffer supplemented with complete mini protease inhibitor cocktail (#04693124001; Roche, Basel, Switzerland) and kept on ice for 30 minutes. Equal amounts of protein were evenly loaded and analyzed by sodium dodecyl sulfate-polyacrylamide gel electrophoresis (SDS-PAGE), and transferred to polyvinylidene difluoride (PVDF) membranes (#IPVH 00010; Millipore, Billerica, MA, USA) at 100 V for 1 hour. Primary antibodies (Santa Cruz Biotechnology, Texas, USA) specific for FOXM1 (#sc-271746), cyclin E1 (#sc-481), α-tubulin (#sc-8035), and β-actin (#sc-47778); PD-L1 (#13684S), cyclin D1 (#2978S), cyclin B1 (#4138S), c-MYC (#5605S), and poly(ADP-ribose) polymerase (PARP, #9542S; Cell Signaling Technology, Beverly, MA, USA) were used to probe proteins of interest. A horseradish-peroxidase-conjugated secondary antibodies specific to the primary antibody was used to detect proteins using pico-enhanced chemiluminescence substrate (#34577; Thermo Fisher Scientific).

CD274 promoter = assay: ChIP-PCR of FOXM1 binding to CD274 promoter; assay type: cell-based, human; details: H1299 and PC9; vs respective controls
Method: To cross-link proteins to DNA, H1299 and PC9 cells were treated with 0.7% formaldehyde at 37° C. for 10 minutes. Cross-linking was quenched by adding glycine to the culture medium at a final concentration of 0.125 M for 5 minutes. The cells were sonicated using a Bioruptor Next Gen sonicator (Diagenode, Denville, NJ, USA) for 5 minutes in 30 s on/30 s off cycle to obtain ~500 bp DNA fragments. The sonicated cell lysates containing genomic DNA fragments were pre-cleared to eliminate unwanted nonspecific components. ChIP was performed using antibody against FOXM1 (#sc-271746, Santa Cruz Biotechnology) with rotation at 4° C. overnight, followed by various washing steps, reverse cross-linking, and protein digestion with proteinase K (#P2308; Sigma-Aldrich, St. Louis, MO, USA). The immunoprecipitated DNA fragments were purified using a phenol-chloroform method, and the purified DNA pellets were resuspended in TE buffer (pH 8.0) and used for PCR. Primers specifically detecting a FOXM1 binding region were designed using a Primer3 tool for chromatin immunoprecipitation-PCR (ChIP-PCR) (Table 1).

H1299 and PC9 cells = assay: Cell cycle distribution analysis (PI staining, flow cytometry); assay type: cell-based, human
Method: Both H1299 and PC9 cells were enzymatically dissociated using TrypLE (#12605-010; Thermo Fisher Scientific), collected by centrifugation at 2,000×g for 2 minutes, resuspended in PBS, fixed in 70% ethanol, and stored overnight at 4° C. Fixed cells were pelleted, washed twice with PBS, resuspended in FxCycle propidium iodide (PI)/RNase staining solution (#F10797; Thermo Fisher Scientific), and incubated in the dark at 37° C. for 30 minutes. Flow cytometry was performed using a FACS-LSR Fortessa flow cytometer (BD Biosciences, Santa Clara, CA, USA).

MC38 cells = assay: Apoptotic cell death assay (Annexin V assay), MC38; assay type: cell-based, mouse; details: TST 5 μM, 48 hours
Method: MC38 cells (8.0×10^4) were seeded in 6-well plates and cultured for 24 hours. The cells were treated with TST (5 μM) for 48 hours, harvested, and analyzed via FACS-Verse using a BD FITC Annexin V Apoptosis Detection Kit I (Cat No. 556547; BD Biosciences, San Diego, CA, USA) according to the manufacturer's protocol.

FOXM1 and PD-L1 = assay: Immunoblotting of FOXM1 and PD-L1 in human colorectal cancer cell lines; assay type: cell-based; details: 5 μM TST; HCT8, HCT116, and SW480
Method: Human colorectal cancer cell lines (HCT116, HCT8, and SW480) and human primary coronary artery smooth muscle cells (SMCs) were purchased from the American Type Culture Collection (Manassas, VA, USA), and a MC38 mouse colorectal adenocarcinoma cell line was provided by Dr. Beom-Kyu Choi (National Cancer Center, Goyang, Republic of Korea). MC38 cells were cultured in Dulbecco's modified Eagle's medium (DMEM) supplemented with 10% FBS and 1% penicillin/streptomycin. SW480 and HCT8 cells were cultured in Roswell Park Memorial Institute (RPMI) medium supplemented with 10% FBS and 1% penicillin/streptomycin. HCT116 cells were maintained in McCoy's 5A medium supplemented with 10% FBS and 1% penicillin/streptomycin. Cells were maintained at 37° C. in a humidified incubator with 5% CO2.
For immunoblotting analysis, protein concentrations were measured using a bicinchoninic acid kit (Cat. 23225; Thermo Fisher Scientific, Carlsbad, CA, USA). Proteins were separated by SDS-PAGE electrophoresis. […] The appropriate secondary antibodies conjugated to horseradish peroxidase were bound to the washed membrane, and protein bands were detected using a chemiluminescence kit (Thermo Fisher Scientific, Carlsbad, CA, USA).

[2] = system: human primary coronary artery smooth muscle cells (SMCs); assay: Cell viability assay (WST-1), SMC normal cells; assay type: cell-based; details: 48 hours
Method: MC38 and SMC were cultured at a density of 3×10^3 cells/well in 96-well plates. The cells were treated with various concentrations of TST dissolved in the medium for 48 hours, then WST-1 reagent (MK400; Takara) was added at a concentration of 10 μL/well and cultured for 1 hour. The absorbance was measured at 450 nm for further analysis.

[3] = system: Lewis lung carcinoma LLC-1; assay: Syngeneic tumor model using murine lung cancer cells LLC-1
Method: Lewis lung carcinoma LLC-1, murine lung cancer cells (5×10^5), were implanted subcutaneously in 5-week-old C57BL/6N mice (n=6 per group) (OrientBio, Seoul, Korea) and left for 10 days to form tumors with a volume of approximately 150 mm^3. […] Tumor volumes and body weights of the mice were measured every other day. On day 9, all the mice were sacrificed, and tumor tissues were collected, fixed in formalin, embedded in paraffin, and sectioned for IHC.
CD3^+ T-cells were detected (ab16669, Cambridge, UK) by anti-CD3 antibody Abcam, according to manufacturer's manuals. The positive signal intensity of CD3^+ T-cells was analyzed by using computer image analysis with ImageJ software (LOCI, University of Wisconsin), and the intensity of CD3^+ signals was calculated as a relative ratio of total positive area/total surface area. Pathological images were obtained from an Aperio VERSA slide scanning system (Leica Biosystems Imaging, Vista, CA, USA). At 100× magnification, three independent and intact computerized microscopic fields of each tissue sample were captured by Aperio Imagescope software (Leica Biosystems Imaging, Vista, CA, USA) and were used for analysis of signal intensity of CD3^+ cells in while microscopic fields.
The in vivo synergy between TST and anti-4-1BB antibody-treated groups was determined by calculating a coefficient of drug interaction (CDI), with CDI values<1, <0.7, =1, and >1 indicating synergy, significant synergy, additivity, and antagonism, respectively.
Lewis lung carcinoma (LLC-1) mouse lung cancer cells (5×10^5) were injected subcutaneously into C57BL/6N mice (n=6 per group) and allowed to form tumors with a volume of 150 mm^3 for 10 days.

[4] = vs NC siRNA or DMSO-treated group, time-dependent

thiostrepton [TST]
protein levels of c-MYC, cyclin B1, and cyclin D1 [1]: significantly decreased | FOXM1 binding to the CD274 promoter (CD274 promoter): dramatic decrease | G2 population (H1299 and PC9 cells; both cell lines, vs DMSO-treated group): an increase in the G2 population | S phase population (H1299 and PC9 cells; [4]): decreased a S phase population | sub-G0/G1 population (H1299 and PC9 cells; [4]): increased the sub-G0/G1 population | apoptotic cell death (flow cytometry) (MC38 cells): significantly increased apoptotic cell death | FOXM1 and PD-L1 levels (FOXM1 and PD-L1): significantly decreased both FOXM1 and PD-L1 levels | in vitro cytotoxicity on SMC normal cells [2]: no significant apoptotic cell death | number of apoptotic tumor cells (TUNEL), vs control group ([3]; day 9): 2.46 fold | increase in CD3+ T cells in tumors, vs control group ([3]; immunohistochemical staining): 1.32 fold | tumor growth inhibition ([3]; treatment initiated at smaller tumor size (~80 mm^3), antibodies 0.2 mg/mouse): 63.1% | inhibition of tumor growth ([3]; tumors 150 mm^3 at start, TST 17 mg/kg, anti-4-1BB 0.2 mg/mouse, day 1, 3, 5, 7, vs control group): 48%

— US20260248881A1, “PHARMACEUTICAL COMPOSITION COMPRISING FOXM1 INHIBITOR AND IMMUNE CHECKPOINT INHIBITOR FOR PREVENTING OR TREATING CANCER” (National Cancer Center, priority 2022, published 2026)
